Experimental data: patent publication US9937151B2, “Carbapenem antibacterials with gram-negative activity” (priority 2010, dated 2018)
Values after ≈ are worked out from the molar mass of the structure shown.

Test system: G(−) bacterial strains
Test: Dilution antimicrobial susceptibility tests (MIC, NCCLS agar dilution / broth dilution)
Format: cell-based, Gram-negative organisms
Conditions: unit assumed
Outline: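 Agar dilution on Mueller-Hinton agar at 10^4 CFU/spot and broth dilution at 5×10^5 CFU/well, per NCCLS M7-A5. Streptococci tested on Mueller-Hinton agar with 5% sheep blood. MIC taken as minimum inhibitory concentration; ATCC control strains run alongside.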

[1] = strain #1 Acinetobacter calcoaceticus
[2] = strain #2 Acinetobacter baumannii, Cf-R, Ci-R
[3] = strain #3 Acinetobacter baumannii, Cf-R, Ci-R, Mp-I
[4] = strain #4 Acinetobacter baumannii, Cf-R, Imp-I, CBPase
[5] = strain #7 Enterobacter aerogenes
[6] = strain #8 Enterobacter cloacae, Cf-R, B+
[7] = strain #9 Enterobacter cloacae, Cf-R
[8] = strain #10 Escherichia coli, Ci-R
[9] = strain #11 Escherichia coli, Ci-R, AmpC
[10] = strain #15 Klebsiella pneumoniae
[11] = strain #16 Moraxella catarrhalis
[12] = strain #21 Providencia rettgeri
[13] = strain #22 Salmonella typhimurium
[14] = strain #25 Shigella dysenteriae
[15] = strain #28 Stenotrophomonas maltophilia
[16] = strain #29 Pseudomonas aeruginosa
[17] = strain #30 Pseudomonas aeruginosa
[18] = strain #31 Pseudomonas aeruginosa, Ofx-R
[19] = strain #32 Pseudomonas aeruginosa, Cf-R
[20] = strain #33 Pseudomonas aeruginosa, Ci-R
[21] = strain #34 Pseudomonas aeruginosa, Gen-R
[22] = strain #35 Pseudomonas aeruginosa, Ip-R
[23] = strain #36 Pseudomonas aeruginosa, Cf-R, Ci-R, Mp-R

Compound	MIC [1]	MIC [2]	MIC [3]	MIC [4]	MIC (strain #5 Citrobacter diversus)	MIC (strain #6 Citrobacter freundii)	MIC [5]	MIC [6]	MIC [7]	MIC [8]	MIC [9]	MIC (strain #12 Escherichia coli)	MIC (strain #13 Escherichia coli)	MIC (strain #14 Klebsiella oxytoca)	MIC [10]	MIC [11]	MIC (strain #17 Morganella Morganii)	MIC (strain #18 Morganella Morganii)	MIC (strain #19 Proteus vulgaris)	MIC (strain #20 Proteus mirabilis)	other results
C[C@@H](O)C1C(=O)N2C(C(=O)O)=C(CN3CC[C@H](C(N)=O)C3)[C@H](C)C12 (stereo partly drawn) [Compound 12]	0.5 µg/mL (≈ 1.48 µM)	0.5 µg/mL (≈ 1.48 µM)	2 µg/mL (≈ 5.93 µM)	1 µg/mL (≈ 2.96 µM)	0.13 µg/mL (≈ 0.385 µM)	0.25 µg/mL (≈ 0.741 µM)	1 µg/mL (≈ 2.96 µM)	0.13 µg/mL (≈ 0.385 µM)	0.25 µg/mL (≈ 0.741 µM)	0.13 µg/mL (≈ 0.385 µM)	0.13 µg/mL (≈ 0.385 µM)	0.13 µg/mL (≈ 0.385 µM)	0.25 µg/mL (≈ 0.741 µM)	0.5 µg/mL (≈ 1.48 µM)	0.5 µg/mL (≈ 1.48 µM)	≤ 0.008 µg/mL	2 µg/mL (≈ 5.93 µM)	1 µg/mL (≈ 2.96 µM)	0.5 µg/mL (≈ 1.48 µM)	0.25 µg/mL (≈ 0.741 µM)	MIC [12]: 1 µg/mL (≈ 2.96 µM); MIC [13]: 0.25 µg/mL (≈ 0.741 µM); MIC (strain #23 Serratia marcescens): 0.5 µg/mL (≈ 1.48 µM); MIC (strain #24 Serratia marcescens): 1 µg/mL (≈ 2.96 µM); MIC [14]: 0.25 µg/mL (≈ 0.741 µM); MIC (strain #26 Shigella sonnei): 0.25 µg/mL (≈ 0.741 µM); MIC (strain #27 Shigella flexneri): 0.25 µg/mL (≈ 0.741 µM); MIC [15]: 0.25 µg/mL (≈ 0.741 µM); MIC [16]: 4 µg/mL (≈ 11.9 µM); MIC [17]: 4 µg/mL (≈ 11.9 µM); MIC [18]: 1 µg/mL (≈ 2.96 µM); MIC [19]: 4 µg/mL (≈ 11.9 µM); MIC [20]: 4 µg/mL (≈ 11.9 µM); MIC [21]: 4 µg/mL (≈ 11.9 µM); MIC [22]: 8 µg/mL (≈ 23.7 µM); MIC [23]: 32 µg/mL (≈ 94.8 µM)
CC(=O)N[C@H]1CCN(CC2=C(C(=O)O)N3C(=O)C([C@@H](C)O)C3[C@H]2C)C1 (stereo partly drawn) [Compound 32]	2 µg/mL (≈ 5.69 µM)	2 µg/mL (≈ 5.69 µM)	4 µg/mL (≈ 11.4 µM)	2 µg/mL (≈ 5.69 µM)	1 µg/mL (≈ 2.85 µM)	1 µg/mL (≈ 2.85 µM)	4 µg/mL (≈ 11.4 µM)	1 µg/mL (≈ 2.85 µM)	2 µg/mL (≈ 5.69 µM)	1 µg/mL (≈ 2.85 µM)	0.5 µg/mL (≈ 1.42 µM)	1 µg/mL (≈ 2.85 µM)	1 µg/mL (≈ 2.85 µM)	2 µg/mL (≈ 5.69 µM)	2 µg/mL (≈ 5.69 µM)	0.016 µg/mL (≈ 0.0455 µM)	8 µg/mL (≈ 22.8 µM)	4 µg/mL (≈ 11.4 µM)	4 µg/mL (≈ 11.4 µM)	1 µg/mL (≈ 2.85 µM)	MIC [12]: 4 µg/mL (≈ 11.4 µM); MIC [13]: 1 µg/mL (≈ 2.85 µM); MIC (strain #23 Serratia marcescens): 2 µg/mL (≈ 5.69 µM); MIC (strain #24 Serratia marcescens): 2 µg/mL (≈ 5.69 µM); MIC [14]: 1 µg/mL (≈ 2.85 µM); MIC (strain #26 Shigella sonnei): 1 µg/mL (≈ 2.85 µM); MIC (strain #27 Shigella flexneri): 0.5 µg/mL (≈ 1.42 µM); MIC [15]: 1 µg/mL (≈ 2.85 µM); MIC [16]: 16 µg/mL (≈ 45.5 µM); MIC [17]: 16 µg/mL (≈ 45.5 µM); MIC [18]: 4 µg/mL (≈ 11.4 µM); MIC [19]: 16 µg/mL (≈ 45.5 µM); MIC [20]: 16 µg/mL (≈ 45.5 µM); MIC [21]: 16 µg/mL (≈ 45.5 µM); MIC [22]: 32 µg/mL (≈ 91.1 µM); MIC [23]: > 32 µg/mL
C[C@@H](O)[C@H]1C(=O)N2C(C(=O)O)=C(CN3C[C@@H](O)[C@H](NC(=N)N)C3)[C@H](C)[C@H]12 [Compound 178]	0.13 µg/mL (≈ 0.354 µM)	1 µg/mL (≈ 2.72 µM)	1 µg/mL (≈ 2.72 µM)	1 µg/mL (≈ 2.72 µM)	0.25 µg/mL (≈ 0.68 µM)	0.5 µg/mL (≈ 1.36 µM)	1 µg/mL (≈ 2.72 µM)	0.25 µg/mL (≈ 0.68 µM)	0.5 µg/mL (≈ 1.36 µM)	0.25 µg/mL (≈ 0.68 µM)	0.25 µg/mL (≈ 0.68 µM)	0.5 µg/mL (≈ 1.36 µM)	0.5 µg/mL (≈ 1.36 µM)	0.5 µg/mL (≈ 1.36 µM)	0.5 µg/mL (≈ 1.36 µM)	≤ 0.008 µg/mL	2 µg/mL (≈ 5.44 µM)	2 µg/mL (≈ 5.44 µM)	2 µg/mL (≈ 5.44 µM)	0.5 µg/mL (≈ 1.36 µM)	MIC [12]: 1 µg/mL (≈ 2.72 µM); MIC [13]: 0.5 µg/mL (≈ 1.36 µM); MIC (strain #23 Serratia marcescens): 1 µg/mL (≈ 2.72 µM); MIC (strain #24 Serratia marcescens): 2 µg/mL (≈ 5.44 µM); MIC [14]: 0.5 µg/mL (≈ 1.36 µM); MIC (strain #26 Shigella sonnei): 0.5 µg/mL (≈ 1.36 µM); MIC (strain #27 Shigella flexneri): 0.25 µg/mL (≈ 0.68 µM); MIC [15]: 0.13 µg/mL (≈ 0.354 µM); MIC [16]: 1 µg/mL (≈ 2.72 µM); MIC [17]: 2 µg/mL (≈ 5.44 µM); MIC [18]: 1 µg/mL (≈ 2.72 µM); MIC [19]: 2 µg/mL (≈ 5.44 µM); MIC [20]: 2 µg/mL (≈ 5.44 µM); MIC [21]: 2 µg/mL (≈ 5.44 µM); MIC [22]: 2 µg/mL (≈ 5.44 µM); MIC [23]: 16 µg/mL (≈ 43.5 µM)
C[C@@H](O)C1C(=O)N2C(C(=O)O)=C(CN3CC[C@H](NCC(N)=O)C3)[C@H](C)C12 (stereo partly drawn) [Compound 83]	2 µg/mL (≈ 5.46 µM)	4 µg/mL (≈ 10.9 µM)	8 µg/mL (≈ 21.8 µM)	8 µg/mL (≈ 21.8 µM)	0.5 µg/mL (≈ 1.36 µM)	1 µg/mL (≈ 2.73 µM)	4 µg/mL (≈ 10.9 µM)	0.5 µg/mL (≈ 1.36 µM)	1 µg/mL (≈ 2.73 µM)	0.5 µg/mL (≈ 1.36 µM)	0.5 µg/mL (≈ 1.36 µM)	0.5 µg/mL (≈ 1.36 µM)	1 µg/mL (≈ 2.73 µM)	2 µg/mL (≈ 5.46 µM)	1 µg/mL (≈ 2.73 µM)	0.031 µg/mL (≈ 0.0846 µM)	8 µg/mL (≈ 21.8 µM)	8 µg/mL (≈ 21.8 µM)	4 µg/mL (≈ 10.9 µM)	1 µg/mL (≈ 2.73 µM)	MIC [12]: 4 µg/mL (≈ 10.9 µM); MIC [13]: 1 µg/mL (≈ 2.73 µM); MIC (strain #23 Serratia marcescens): 2 µg/mL (≈ 5.46 µM); MIC (strain #24 Serratia marcescens): 2 µg/mL (≈ 5.46 µM); MIC [14]: 1 µg/mL (≈ 2.73 µM); MIC (strain #26 Shigella sonnei): 1 µg/mL (≈ 2.73 µM); MIC (strain #27 Shigella flexneri): 0.5 µg/mL (≈ 1.36 µM); MIC [15]: 1 µg/mL (≈ 2.73 µM); MIC [16]: 16 µg/mL (≈ 43.7 µM); MIC [17]: 16 µg/mL (≈ 43.7 µM); MIC [18]: 8 µg/mL (≈ 21.8 µM); MIC [19]: 16 µg/mL (≈ 43.7 µM); MIC [20]: 16 µg/mL (≈ 43.7 µM); MIC [21]: 32 µg/mL (≈ 87.3 µM); MIC [22]: 32 µg/mL (≈ 87.3 µM); MIC [23]: > 32 µg/mL
C[C@@H](O)C1C(=O)N2C(C(=O)O)=C(CN3CC(C(N)=O)C3)[C@H](C)C12 (stereo partly drawn) [Compound 49]	0.25 µg/mL (≈ 0.773 µM)	0.5 µg/mL (≈ 1.55 µM)	2 µg/mL (≈ 6.19 µM)	1 µg/mL (≈ 3.09 µM)	0.063 µg/mL (≈ 0.195 µM)	0.13 µg/mL (≈ 0.402 µM)	0.25 µg/mL (≈ 0.773 µM)	0.063 µg/mL (≈ 0.195 µM)	0.13 µg/mL (≈ 0.402 µM)	0.063 µg/mL (≈ 0.195 µM)	0.063 µg/mL (≈ 0.195 µM)	0.063 µg/mL (≈ 0.195 µM)	0.13 µg/mL (≈ 0.402 µM)	0.25 µg/mL (≈ 0.773 µM)	0.25 µg/mL (≈ 0.773 µM)	≤ 0.008 µg/mL	2 µg/mL (≈ 6.19 µM)	1 µg/mL (≈ 3.09 µM)	0.5 µg/mL (≈ 1.55 µM)	0.13 µg/mL (≈ 0.402 µM)	MIC [12]: 0.5 µg/mL (≈ 1.55 µM); MIC [13]: 0.13 µg/mL (≈ 0.402 µM); MIC (strain #23 Serratia marcescens): 0.25 µg/mL (≈ 0.773 µM); MIC (strain #24 Serratia marcescens): 0.25 µg/mL (≈ 0.773 µM); MIC [14]: 0.13 µg/mL (≈ 0.402 µM); MIC (strain #26 Shigella sonnei): 0.13 µg/mL (≈ 0.402 µM); MIC (strain #27 Shigella flexneri): 0.063 µg/mL (≈ 0.195 µM); MIC [15]: 0.13 µg/mL (≈ 0.402 µM); MIC [16]: 4 µg/mL (≈ 12.4 µM); MIC [17]: 4 µg/mL (≈ 12.4 µM); MIC [18]: 2 µg/mL (≈ 6.19 µM); MIC [19]: 4 µg/mL (≈ 12.4 µM); MIC [20]: 4 µg/mL (≈ 12.4 µM); MIC [21]: 4 µg/mL (≈ 12.4 µM); MIC [22]: 8 µg/mL (≈ 24.7 µM); MIC [23]: 32 µg/mL (≈ 99 µM)
